In patent US11332450B2, “Isoxazole as FXR receptor agonists” (Bar Pharmaceuticals Societa' A Responsabilita' Limitata, priority 2018, dated 2022):

Assays:
[1] = Microsomal stability in mouse liver microsomes; assay type: in vitro ADME; details: male CD-1 mouse liver microsomes, 1 μM compound, 37° C.
Protocol: Male mouse (CD-1) liver microsomes (Sigma-Aldrich) were used. All incubations were performed in duplicate in a shaking water bath at 37° C. […] Aliquots were removed at 0, 5, 10, 20, 30, and 40 min after microsome addition and the reaction was stopped by adding 200 μL of ice-cold acetonitrile. After 2 h, the samples were centrifuged for 10 min at 10000 rpm, and the supernatants were transferred in matrix tubes for LC-MS/MS analysis. Propranolol, known as a high hepatic clearance drug in rodents, was used as a quality-control compound for the microsomal incubations. The slope of the linear regression of the curve obtained reporting the natural logarithm of compound area versus incubation time (−k) was used in the conversion to in vitro t1/2 values by t1/2=−ln(2)/k. In vitro intrinsic clearance (CLint expressed as μL/min/mg) was calculated according to the following formula: Clint=volume of reaction (μL)/t1/2 (min)/protein of liver microsomes (mg).

[2] = system: SHP mRNA; assay: SHP mRNA expression in HepG2 cells (RT-PCR); assay type: cell-based, human
Protocol: RNA isolation and RT-PCR. HepG2 cells were plated at the density of 1×10^6 cells/flask in T25 flask. […] Total RNA was isolated from HepG2 cells or liver tissue using the TRIzol reagent according to the manufacturer's specifications (Invitrogen). One microgram of purified RNA was treated with DNase-I and reverse transcribed with QuantiTect Reverse Transcription Kit (Qiagen). For Real Time PCR, 10 ng template was dissolved in 25 μL containing 200 nmol/L of each primer and 12.5 μL of 2×SYBR FAST Universal ready mix (Invitrogen). All reactions were performed in triplicate, and the thermal cycling conditions were as follows: 2 min at 95° C., followed by 40 cycles of 95° C. for 20 s and 60° C. for 30 s in StepOnePlus (Applied Biosystems). The relative mRNA expression was calculated in accord to the Ct method. Forward and reverse primer sequences were the following: human GAPDH: [NT] (SEQ ID: 1) and [NT] (SEQ ID: 2); human SHP: [NT] (SEQ ID: 3) and [NT] (SEQ ID: 4); mouse GAPDH, [NT] (SEQ ID: 5) and [NT] (SEQ ID: 6); mouse SHP [NT] (SEQ ID: 7) and [NT] (SEQ ID: 8); mouse FXR: [NT] (SEQ ID: 9) and [NT] (SEQ ID: 10); mouse BSEP: [NT] (SEQ ID: 11) and [NT] (SEQ ID: 12).

[3] = rats, oral administration; cited from earlier work
[4] = ascribed to the stilbene moiety; cited from earlier work
[5] = system: liver SHP mRNA; assay: Liver SHP mRNA expression in mice after administration of compound; assay type: in vivo, mouse; details: administered per os, 10 mg/kg daily for 3 days
Protocol: (§1) Total RNA was isolated from HepG2 cells or liver tissue using the TRIzol reagent according to the manufacturer's specifications (Invitrogen). One microgram of purified RNA was treated with DNase-I and reverse transcribed with QuantiTect Reverse Transcription Kit (Qiagen). For Real Time PCR, 10 ng template was dissolved in 25 μL containing 200 nmol/L of each primer and 12.5 μL of 2×SYBR FAST Universal ready mix (Invitrogen). All reactions were performed in triplicate, and the thermal cycling conditions were as follows: 2 min at 95° C., followed by 40 cycles of 95° C. for 20 s and 60° C. for 30 s in StepOnePlus (Applied Biosystems). The relative mRNA expression was calculated in accord to the Ct method. Forward and reverse primer sequences were the following: human GAPDH: [NT] (SEQ ID: 1) and [NT] (SEQ ID: 2); human SHP: [NT] (SEQ ID: 3) and [NT] (SEQ ID: 4); mouse GAPDH, [NT] (SEQ ID: 5) and [NT] (SEQ ID: 6); mouse SHP [NT] (SEQ ID: 7) and [NT] (SEQ ID: 8); mouse FXR: [NT] (SEQ ID: 9) and [NT] (SEQ ID: 10); mouse BSEP: [NT] (SEQ ID: 11) and [NT] (SEQ ID: 12). C57BL/6N male mice were from The Jackson's Laboratory. […] The general health of the animals was monitored daily by the Veterinarian in the animal facility. […]

[6] = system: liver BSEP mRNA; assay: Liver BSEP mRNA expression in mice after administration of compound; assay type: in vivo, mouse; details: administered per os, 10 mg/kg daily for 3 days
Protocol: as §1

SMILES | Clint [1] [µL/min/mg] | t1/2 [1] [min] | SHP mRNA expression induction ([2]; reference compound at 10 μM concentration) [times] | intestinal absorption [3] [%] | terminal half-life [3] | UV light stability [4] | SHP mRNA expression induction ([2]; 5 μM concentration, 18 h) [times] | liver SHP mRNA expression [5] | liver BSEP mRNA expression [6]
CC(C)c1onc(-c2c(Cl)cccc2Cl)c1COc1ccc(/C=C/c2cccc(C(=O)O)c2)c(Cl)c1 [GW4064] | 56 | 41 | 4.2 | < 10 | short | UV light instability |  |  | 
CC(C)c1onc(-c2c(Cl)cccc2Cl)c1COc1ccc(COc2ccc(C(=O)O)cc2)cc1 [BAR2109, 4-((4-((3-(2,6-dichlorophenyl)-5-isopropylisoxazol-4-yl)methoxy)benzyl)oxy)benzoic Acid] |  |  |  |  |  |  | 6.8 | inducing | inducing
CC(C)c1onc(-c2c(Cl)cccc2Cl)c1COc1ccc(COc2cccc(C(=O)O)c2)cc1 [BAR2123, 3-((4-((3-(2,6-dichlorophenyl)-5-isopropylisoxazol-4-yl)methoxy)benzyl)oxy)benzoic Acid] |  |  |  |  |  |  | 6.2 |  | 
